Data on six compounds can be found in patent US7179819B2, “VLA-4 inhibitor compounds” (Daiichi Pharmaceutical Co., Ltd., priority 1999, dated 2007).

Structures can show the parent of a compound that is named as a salt.

As usually defined, the MRT is the average time that molecules of a dose stay in the body.

Series [1] is described as follows: in vivo. Conditions: female, Balb/c, mouse, po, 10 mg/kg.
Method: (§1) A compound was dissolved or suspended with an appropriate solvent at 1 mg/mL. Female Balb/c mice (7–9 weeks old) were given the compound orally. Blood samples were collected from the postcaval vein of the anesthetized mice after fifteen minutes. Serum was prepared and stored at −20° C. Serum concentration of the compound was determined from inhibitory activities of the diluted serum by a direct binding assay using VLA-4-expressing cells and VCAM-IgG fusion protein. Serum concentration determined by this method correlated well with the concentration determined by LC/MS/MS methodologies.
Series [2] has as its system VLA-4-mediated lymphocyte adherence. Particulars: Molossi et al. 1995; cited from earlier work.
Series [3] has as its system accelerated coronary arteriopathy. Particulars: Molossi et al. 1995; cited from earlier work.
A short description of series [4]: in vivo. Conditions: monkey, 2 mg/kg.
Series [5] in a line: Pharmacokinetic evaluation in monkey, single intravenous dosage. Conditions: single intravenous dosage (2 mg/kg), LC/MS/MS.
Series [6] can be described thus: Mouse bio-assay: serum concentration after oral dosing, determined by direct binding assay of diluted serum. Conditions: 10 mg/kg.
Method: as §1
Series [7] has as its system eosinophil infiltration. Description: Murine model of Ascaris-induced bronchial inflammation: eosinophil infiltration into bronchoalveolar lavage fluid. In kind it is in vivo. Particulars: mouse. As to the method:
The VLA-4 inhibitors may be further characterized in in vivo assays. One such assay examines the inhibition of eosinophil infiltration into the bronchoalveolar lavage fluid in the mouse (murine) model. In this assay, the animals are treated with cyclophosphamide on day 0. On days 2 and 14, the animals are immunized intraperitoneally with Ascaris suum extract. Seven days later, the animals are treated with various doses of the VLA-4 inhibitor. Shortly after drug administration, the animals are challenged with Ascaris suum extract by instillation into the trachea. Bronchoalveolar lavage of the animal is performed by instilling saline into the lung, 48 hours later. Total cell and eosinophil counts in the lavage are determined.

Series [8] can be described thus: Pharmacokinetic evaluation in rat. In kind it is in vivo. Particulars: for AUC (total area under the plasma concentration versus time curve): LC/MS/MS; for clearance / MRT: plasma, 10 mg/kg; for clearance: read-out: CL (apparent plasma clearance); for MRT: read-out: MRT (mean residence time).
Series [9] has as its system eosinophil infiltration. Description: Eosinophil accumulation model in the rat (Compound 48/80 injected into pleural cavities). Type of series: in vivo, male Sprague Dawley rats. Conditions: b.i.d. at 0 and 8 hours. The protocol:
The compounds of the present invention may also be further characterized in other in vivo assays, such as the eosioophil accumulation model tested in the rat. Fifty μg of Compound 48/80 was injected into the pleural cavities of male Sprague Dawley rats. After 24 hrs, each cavity was washed twice with Hank's Balanced Salt Solution containing 0.2% EDTA. Total cell and eosinophil counts were determined. Test compounds were given intraveneously, orally or subcutaneously, b.i.d. at 0 and 8 hours.

The nature of series [10]: Pharmacokinetic evaluation in mouse. In kind it is in vivo. Conditions: for AUC (total area under the plasma concentration versus time curve): LC/MS/MS; for clearance / MRT: plasma; for clearance: read-out: CL (apparent plasma clearance); for MRT: read-out: MRT (mean residence time).
A further series concerns VLA-4-expressing cells. Conditions: Wang et al. 1995; cited from earlier work.
The mark [11] stands for this setting: 10 mg/kg (p.o.), line of AUC 0–6 hr.
[12] abbreviates: 10 mg/kg (p.o.), line of AUC 0–∞.
Setting [13] is: iv, 10 mg/kg (i.v.), line of AUC 0–6 hr.
[14] abbreviates: iv, 10 mg/kg (i.v.), line of AUC 0–∞.
The mark [15] stands for this setting: iv, 10 mg/kg, 10 mg/kg (i.v.), line of AUC 0–6 hr.
Setting [16] is: iv, 10 mg/kg, 10 mg/kg (i.v.), line of AUC 0–∞.

For `COC(=O)c1ccc(OC[C@@H]2C[C@@H](N(C)C)CN2C(=O)Cc2ccc(NC(=O)Nc3ccccc3C)c(OC)c2)cc1` [Compound 156, methyl 4-[trans-4-dimethylamino-1-[3-methoxy-4-[N′-(2-methylphenyl)ureido]phenylacetyl]-(2S)-pyrrolidinyl]methoxybenzoate HCl salt], the concentration at 15 min in the series “in vivo [1]” was found to be 285 ng/mL.

Turning to “phenylacetic acid-Leu-Asp-Phe-d-Pro-amide”, the “VLA-4-mediated lymphocyte adherence in vitro” value in series [2] is “inhibited”. The “accelerated coronary arteriopathy in rabbit cardiac allografts” value in series [3] was “reduced”.

For `COc1cc(CC(=O)N2CC(O)C(O)C2C(=O)N2CCN(CC(=O)O)CC2)ccc1NC(=O)Nc1ccccc1C` (centres unmarked) [Compound 195], the clearance in “in vivo [4]” (plasma, iv) was found to be 4 mL/min/kg. In the series “in vivo [4]” (serum, intravenous), this compound came in with a concentration at 5 min of 65400 ng/mL, a concentration at 30 min of 3900 ng/mL, a concentration at 1 hr of 2220 ng/mL and a concentration at 2 hr of 772 ng/mL. In the series “in vivo [4]” (serum, intravenous), this compound had a concentration at 4 hr of 194 ng/mL and a concentration at 8 hr of 28 ng/mL. For the same compound, the “AUC (total area under the plasma concentration versus time curve)” value in series [5] was 8405 ng·h/mL.

`Cc1ccccc1NC(=O)Nc1ccc(CC(=O)N2C[C@@H](F)C[C@H]2COc2ccc(C(=O)O)cc2)cc1Cl` [Compound 90, 4-[1-[3-chloro-4-[N′-(2-methylphenyl)ureido]phenylacetyl]-(4S)-fluoro-(2S)-pyrrolidinyl]methoxybenzoic acid]: the “Serum Concentration” value in series [6] (oral, 15 minutes post-administration) stood at 3659 ng/mL. Further, the “% Inhibition of Eosinophil Infiltration” value with eosinophil infiltration [7] (10 mg/kg t.i.d. × 2 days, p.o.) was 18.1%; in the series on eosinophil infiltration [7] (30 mg/kg b.i.d. × 2 days, i.v.), 47.3%; in the series with eosinophil infiltration [7] (30 mg/kg t.i.d. × 2 days, p.o.) it was 39.1%; in the series with eosinophil infiltration [7] (50 mg/kg t.i.d. × 2 days, p.o.) it was 45.9%; in the series with eosinophil infiltration [9] (3 mg/kg 2 days, i.v.), 25.4%; in the series on eosinophil infiltration [9] (10 mg/kg 2 days, i.v.) it was 46.7%. Also, the “% Inhibition of Eosinophil Infiltration” value is on record as 83.7% with eosinophil infiltration [9] (30 mg/kg 2 days, i.v.) and 50.5% in the series on eosinophil infiltration [9] (50 mg/kg 2 days, p.o.). Besides, the “AUC (total area under the plasma concentration versus time curve)” value in series [8] (10 mg/kg (i.v.), 0–6 hr) is 31915 (0–6 hr) ng · h/mL; in series [8] (10 mg/kg (i.v.), 0–∞), 33488 (0–∞) ng · h/mL; in [8] (10 mg/kg (p.o.), 0–6 hr), 11454 (0–6 hr) ng · h/mL; in series [8] (10 mg/kg (p.o.), 0–∞), 19968 (0–∞) ng · h/mL; in series [10] (10 mg/kg (i.v.), 0–6 hr) it was 8995 (0–6 hr) ng · h/mL; in series [10] (10 mg/kg (i.v.), 0–∞), 9219 (0–∞) ng · h/mL. The “AUC (total area under the plasma concentration versus time curve)” value in series [10] (10 mg/kg (p.o.), 0–6 hr) was 2540 (0–6 hr) ng · h/mL; in [10] (10 mg/kg (p.o.), 0–∞), 2950 (0–∞) ng · h/mL. Moreover, the “CL (apparent plasma clearance)” value in series [8] (setting [11]) is listed as 17.85 mL/min/kg; in series [8] (setting [12]), 9.99 mL/min/kg; in [10] (setting [11]), 65.62 mL/min/kg; in series [10] (setting [12]) it was 56.50 mL/min/kg. Further, the clearance in series [8] (setting [13]) turned out to be 5.23 mL/min/kg; in series [8] (setting [14]), 4.98 mL/min/kg; in [10] (setting [15]), 18.5 mL/min/kg; in [10] (setting [16]), 18.1 mL/min/kg. The mean residence time MRT in series [8] (setting [13]) worked out at 0.8 h; in series [8] (setting [14]) it was 1.1 h; in series [8] (po, 10 mg/kg (p.o.), line of AUC 0–6 hr), 1.7 h; in series [8] (po, 10 mg/kg (p.o.), line of AUC 0–∞) it was 8.8 h; in [10] (setting [15]) it was 0.5 h; in [10] (setting [16]), 0.7 h. The MRT in series [10] (po, 10 mg/kg, 10 mg/kg (p.o.), line of AUC 0–6 hr) came out at 1.2 h; in [10] (po, 10 mg/kg, 10 mg/kg (p.o.), line of AUC 0–∞) it was 2.5 h.

Turning to CQIDSPC [Synthetic VCAM-1 peptide], the “adhesion of VLA-4-expressing cells to purified VCAM-1” value with VLA-4-expressing cells is “inhibit the adhesion”.

For `Cc1cc(CC(=O)N2C[C@@H](F)C[C@H]2COc2ccc(C(=O)O)cc2)ccc1NC(=O)Nc1ccccc1Br` [Compound 80, 4-[1-[4-[N′-(2-bromophenyl)ureido]-3-methylphenylacetyl]-(4S)-fluoro-(2S)-pyrrolidinyl]methoxybenzoic acid], the concentration at 15 min in [6] (female, Balb/c, serum, po) is 693 ng/mL. In addition, in the series with eosinophil infiltration [9] (50 mg/kg 2 days, s.c.), the “% Inhibition of Eosinophil Infiltration” value turned out to be 65.3%. Besides, the “AUC (total area under the plasma concentration versus time curve)” value in series [10] (10 mg/kg (i.v.), 0–6 hr) is recorded as 5259 (0–6 hr) ng · h/mL; in [10] (10 mg/kg (i.v.), 0–∞), 5389 (0–∞) ng · h/mL; in [10] (20 mg/kg (p.o.), 0–6 hr), 2190 (0–6 hr) ng · h/mL; in [10] (20 mg/kg (p.o.), 0–∞), 3615 (0–∞) ng · h/mL. In addition, the “CL (apparent plasma clearance)” value in series [10] (20 mg/kg (p.o.), line of AUC 0–6 hr) is recorded as 152.24 mL/min/kg; in [10] (20 mg/kg (p.o.), line of AUC 0–∞), 92.21 mL/min/kg. Moreover, the results for the clearance in series [10] (setting [15]) and in [10] (setting [16]) were 31.7 mL/min/kg and 30.9 mL/min/kg, respectively. The MRT in [10] (setting [15]) was determined as 0.4 h; in series [10] (setting [16]) it was 0.6 h; in [10] (po, 20 mg/kg, 20 mg/kg (p.o.), line of AUC 0–6 hr), 2.3 h; in series [10] (po, 20 mg/kg, 20 mg/kg (p.o.), line of AUC 0–∞) it was 6.5 h.
